Results reported in PubChem BioAssay (NCI).
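A five-concentration, 48-hour dose response in 96-well plates underlies each endpoint, interpolated linearly between surrounding concentrations. GI50 is the concentration that inhibits growth by half. TGI denotes the concentration required for complete inhibition of growth.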

Assays:
Test in all cases: DTP human tumour cell line panel, 48 h
786-0 renal = tested on: 786-0 renal
A498 renal = tested on: A498 renal
A549 NSCLC = tested on: A549 NSCLC
ACHN renal = tested on: ACHN renal
BT-549 breast = tested on: BT-549 breast
CAKI-1 renal = tested on: CAKI-1 renal
CCRF-CEM leukemia = tested on: CCRF-CEM leukemia
COLO 205 colon = tested on: COLO 205 colon
DU-145 prostate = tested on: DU-145 prostate
EKVX NSCLC = tested on: EKVX NSCLC
HCC-2998 colon = tested on: HCC-2998 colon
HCT-116 colon = tested on: HCT-116 colon
HCT-15 colon = tested on: HCT-15 colon
HL-60(TB) leukemia = tested on: HL-60(TB) leukemia
HOP-62 NSCLC = tested on: HOP-62 NSCLC
HOP-92 NSCLC = tested on: HOP-92 NSCLC
HS 578T breast = tested on: HS 578T breast
HT29 colon = tested on: HT29 colon
IGROV1 ovarian = tested on: IGROV1 ovarian
K-562 leukemia = tested on: K-562 leukemia
KM12 colon = tested on: KM12 colon
LOX IMVI melanoma = tested on: LOX IMVI melanoma
M14 melanoma = tested on: M14 melanoma
MALME-3M melanoma = tested on: MALME-3M melanoma
MCF7 breast = tested on: MCF7 breast
MDA-MB-231 breast = tested on: MDA-MB-231 breast
MDA-MB-435 = tested on: MDA-MB-435
MDA-MB-468 breast = tested on: MDA-MB-468 breast
MOLT-4 leukemia = tested on: MOLT-4 leukemia
NCI-H226 lung = tested on: NCI-H226 lung
NCI-H23 lung = tested on: NCI-H23 lung
NCI-H460 lung = tested on: NCI-H460 lung
NCI-H522 lung = tested on: NCI-H522 lung
NCI/ADR-RES ovarian = tested on: NCI/ADR-RES ovarian
OVCAR-3 ovarian = tested on: OVCAR-3 ovarian
OVCAR-4 ovarian = tested on: OVCAR-4 ovarian
OVCAR-5 ovarian = tested on: OVCAR-5 ovarian
OVCAR-8 ovarian = tested on: OVCAR-8 ovarian
PC-3 prostate = tested on: PC-3 prostate
RPMI-8226 leukemia = tested on: RPMI-8226 leukemia
RXF 393 renal = tested on: RXF 393 renal
SF-268 CNS = tested on: SF-268 CNS
SF-295 CNS = tested on: SF-295 CNS
SF-539 CNS = tested on: SF-539 CNS
SK-MEL-2 melanoma = tested on: SK-MEL-2 melanoma
SK-MEL-28 melanoma = tested on: SK-MEL-28 melanoma
SK-MEL-5 melanoma = tested on: SK-MEL-5 melanoma
SK-OV-3 ovarian = tested on: SK-OV-3 ovarian
SN12C renal = tested on: SN12C renal
SNB-19 CNS = tested on: SNB-19 CNS
SNB-75 CNS = tested on: SNB-75 CNS
SR leukemia = tested on: SR leukemia
SW-620 colon = tested on: SW-620 colon
T-47D breast = tested on: T-47D breast
TK-10 renal = tested on: TK-10 renal
U251 CNS = tested on: U251 CNS
UACC-257 melanoma = tested on: UACC-257 melanoma
UACC-62 melanoma = tested on: UACC-62 melanoma
UO-31 renal = tested on: UO-31 renal

For `CC1(c2ccccc2)NC(=O)N(CC(=O)Nc2ccc(C(=O)/C=C/c3ccc(Cl)cc3)cc2)C1=O` (stereo not drawn), the GI50 (786-0 renal) was 7.48 µM, the TGI (786-0 renal) was 21 µM and the GI50 (A498 renal) was 14.4 µM. For the same molecule, the TGI (A498 renal) was 38.2 µM, the GI50 (A549 NSCLC) was 4.25 µM and the TGI (A549 NSCLC) was 20 µM. It also gave a GI50 (ACHN renal) of 4.92 µM, a TGI (ACHN renal) of 17.7 µM and a GI50 (BT-549 breast) of 4.78 µM. It also gave a TGI (BT-549 breast) of 19 µM, a GI50 (CAKI-1 renal) of 5.51 µM and a TGI (CAKI-1 renal) of 20.7 µM. For the same molecule, the GI50 (CCRF-CEM leukemia) was 4 µM, the TGI (CCRF-CEM leukemia) was 30.8 µM and the GI50 (COLO 205 colon) was 13.2 µM. It also gave a TGI (COLO 205 colon) of 29.7 µM, a GI50 (DU-145 prostate) of 12.3 µM and a TGI (DU-145 prostate) of 26.2 µM. The GI50 (EKVX NSCLC) was 4.64 µM, the TGI (EKVX NSCLC) was 23.5 µM and the GI50 (HCC-2998 colon) was 1.79 µM. The TGI (HCC-2998 colon) was 3.63 µM, the GI50 (HCT-116 colon) was 1.37 µM and the TGI (HCT-116 colon) was 2.8 µM. For the same molecule, the GI50 (HCT-15 colon) was 4.55 µM, the TGI (HCT-15 colon) was 18.4 µM and the GI50 (HL-60(TB) leukemia) was 4.06 µM. For the same molecule, the TGI (HL-60(TB) leukemia) was 30.9 µM, the GI50 (HOP-62 NSCLC) was 12.5 µM and the TGI (HOP-62 NSCLC) was 29.8 µM. For the same molecule, the GI50 (HOP-92 NSCLC) was 6.25 µM, the TGI (HOP-92 NSCLC) was 53.7 µM and the GI50 (HS 578T breast) was 12.7 µM. The TGI (HS 578T breast) was over 100 µM, the GI50 (HT29 colon) was 3.7 µM and the TGI (HT29 colon) was 15.7 µM. For the same molecule, the GI50 (IGROV1 ovarian) was 9.27 µM, the TGI (IGROV1 ovarian) was 22.3 µM and the GI50 (K-562 leukemia) was 3.09 µM. For the same molecule, the TGI (K-562 leukemia) was 13.1 µM, the GI50 (KM12 colon) was 2.54 µM and the TGI (KM12 colon) was 6.87 µM. For the same molecule, the GI50 (LOX IMVI melanoma) was 2.95 µM, the TGI (LOX IMVI melanoma) was 11.1 µM and the GI50 (M14 melanoma) was 3.22 µM. For the same molecule, the TGI (M14 melanoma) was 12 µM, the GI50 (MALME-3M melanoma) was 13.1 µM and the TGI (MALME-3M melanoma) was 30.8 µM. For the same molecule, the GI50 (MCF7 breast) was 1.96 µM, the TGI (MCF7 breast) was 5.28 µM and the GI50 (MDA-MB-231 breast) was 5.97 µM. The TGI (MDA-MB-231 breast) was 21.6 µM, the GI50 (MDA-MB-435) was 2.15 µM and the TGI (MDA-MB-435) was 4.83 µM. It also gave a GI50 (MDA-MB-468 breast) of 2.85 µM, a TGI (MDA-MB-468 breast) of 12.3 µM and a GI50 (MOLT-4 leukemia) of 3.02 µM. It also gave a TGI (MOLT-4 leukemia) of 23.1 µM, a GI50 (NCI-H226 lung) of 9.09 µM and a TGI (NCI-H226 lung) of 52.3 µM. For the same molecule, the GI50 (NCI-H23 lung) was 11.7 µM, the TGI (NCI-H23 lung) was 24.8 µM and the GI50 (NCI-H460 lung) was 12 µM. For the same molecule, the TGI (NCI-H460 lung) was 27.8 µM, the GI50 (NCI-H522 lung) was 6.69 µM and the TGI (NCI-H522 lung) was 30 µM. The GI50 (NCI/ADR-RES ovarian) was 13.5 µM, the TGI (NCI/ADR-RES ovarian) was 46.4 µM and the GI50 (OVCAR-3 ovarian) was 7.1 µM. For the same molecule, the TGI (OVCAR-3 ovarian) was 21.9 µM, the GI50 (OVCAR-4 ovarian) was 7.35 µM and the TGI (OVCAR-4 ovarian) was 36.1 µM. For the same molecule, the GI50 (OVCAR-5 ovarian) was 13.3 µM, the TGI (OVCAR-5 ovarian) was 29 µM and the GI50 (OVCAR-8 ovarian) was 10.7 µM. The TGI (OVCAR-8 ovarian) was 52.5 µM, the GI50 (PC-3 prostate) was 3.61 µM and the TGI (PC-3 prostate) was 27.6 µM. The GI50 (RPMI-8226 leukemia) was 1.93 µM, the TGI (RPMI-8226 leukemia) was 5.07 µM and the GI50 (RXF 393 renal) was 2.97 µM. For the same molecule, the TGI (RXF 393 renal) was 13.6 µM, the GI50 (SF-268 CNS) was 6.51 µM and the TGI (SF-268 CNS) was 31.5 µM. For the same molecule, the GI50 (SF-295 CNS) was 4.34 µM, the TGI (SF-295 CNS) was 16.6 µM and the GI50 (SF-539 CNS) was 6.15 µM. For the same molecule, the TGI (SF-539 CNS) was 19.1 µM, the GI50 (SK-MEL-2 melanoma) was 11.5 µM and the TGI (SK-MEL-2 melanoma) was 28 µM. It also gave a GI50 (SK-MEL-28 melanoma) of 10.8 µM, a TGI (SK-MEL-28 melanoma) of 23.2 µM and a GI50 (SK-MEL-5 melanoma) of 4.72 µM. For the same molecule, the TGI (SK-MEL-5 melanoma) was 16.6 µM, the GI50 (SK-OV-3 ovarian) was 16 µM and the TGI (SK-OV-3 ovarian) was 44.6 µM. It also gave a GI50 (SN12C renal) of 7.96 µM, a TGI (SN12C renal) of 25.4 µM and a GI50 (SNB-19 CNS) of 11.2 µM. It also gave a TGI (SNB-19 CNS) of 24.4 µM, a GI50 (SNB-75 CNS) of 1.48 µM and a TGI (SNB-75 CNS) of 21.8 µM. It also gave a GI50 (SR leukemia) of 2.99 µM, a TGI (SR leukemia) of over 100 µM and a GI50 (SW-620 colon) of 5.93 µM. For the same molecule, the TGI (SW-620 colon) was 20.7 µM, the GI50 (T-47D breast) was 2.59 µM and the TGI (T-47D breast) was 14.6 µM. The GI50 (TK-10 renal) was 10.8 µM, the TGI (TK-10 renal) was 35.4 µM and the GI50 (U251 CNS) was 3.16 µM. For the same molecule, the TGI (U251 CNS) was 14.3 µM, the GI50 (UACC-257 melanoma) was 11.3 µM and the TGI (UACC-257 melanoma) was 25.7 µM. It also gave a GI50 (UACC-62 melanoma) of 4.07 µM, a TGI (UACC-62 melanoma) of 17.8 µM and a GI50 (UO-31 renal) of 4.06 µM. For the same molecule, the TGI (UO-31 renal) was 18 µM.
